From US6713505B2, “spla2 inhibitors” (Eli Lilly and Company, priority 2000, dated 2004)

Target: T1, recombinant human secreted phospholipase A2 (Homo sapiens, UniProt P14555)
T1 sequence (P14555 21-144): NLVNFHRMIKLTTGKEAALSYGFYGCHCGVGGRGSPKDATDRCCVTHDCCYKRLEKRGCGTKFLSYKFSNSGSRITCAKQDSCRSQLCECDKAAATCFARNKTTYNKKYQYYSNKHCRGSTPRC
Test: chromogenic assay for inhibitors of recombinant human secreted phospholipase A2
Assay type: biochemical
Conditions: diheptanoyl thio-PC substrate, pH 7.5, 40° C. for 30 minutes, absorbance at 405 nanometers, triplicate
Description: The following chromogenic assay procedure was used to identify and evaluate inhibitors of recombinant human secreted phospholipase A2. The assay described herein has been adapted for high volume screening using 96 well microtiter plates. A general description of this assay method is found in the article, “Analysis of Human Synovial Fluid Phospholipase A2 on Short Chain Phosphatidylcholine-Mixed Micelles: Development of a Spectrophotometric Assay Suitable for a Microtiterplate Reader”, by Laure J. Reynolds, Lori L. Hughes, and Edward A Dennis, Analytical Biochemistry, 204, pp. 190-197, 1992 (the disclosure of which is incorporated herein by reference):
Adjust pH to 4.5 with acetic acid
DTNB—5,5′-dithiobis-2-nitrobenzoic acid
RACEMIC DIHEPTANOYL THIO—PC
racemic 1,2-bis(heptanoylthio)-1,2-dideoxy-sn-glycero-3-phosphorylcholine
TRITON X-100™ prepare at 6.249 mg/ml in reaction buffer to equal […].
A measured volume of racemic dipheptanoyl thio PC supplied in chloroform at a concentration of 100 mg/ml is taken to dryness and redissolved in 10 millimolar TRITON X-100™ nonionic detergent aqueous solution. Reaction Buffer is added to the solution, then DTNB to give the Reaction Mixture.
The reaction mixture thus obtained contains 1 mM diheptanoly thio-PC substrate, 0.29 mm Triton X-100™ detergent, and 0.12 mm DTMB in a buffered aqueous solution at pH 7.5.
1. Add 0.2 ml reaction mixture to all wells;
2. Add 10 ul test compound (or solvent blank) to appropriate wells, mix 20 seconds;
3. Add 50 nanograms of sPLA2 (10 microliters) to appropriate wells;
4. […]
5. Read absorbance of wells at 405 nanometers with an automatic plate reader.
Tests were done in triplicate. […] Compounds initially found to be active were re-assayed to confirm their activity and, if sufficiently active, IC50 values were determined. […] In all cases, % inhibition measured at 405 nanometers generated by enzyme reactions containing inhibitors relative to the uninhibited control reactions was determined. […] IC50 values were determined by plotting log concentration versus inhibition values in the range from 10-90% inhibition.

IC50 [µM]	SMILES
1.41	CCc1sc2cccc(OCC(=O)O)c2c1C(=O)C(N)=O [Example 1, (3-aminooxalyl-2-ethylbenzo[b]thiophen-4-yloxy)acetic acid]
64.8	CCc1sc2cccc(OCC(=O)N[C@@H](CC(C)C)C(=O)OC)c2c1C(=O)C(N)=O [Example 2, 2(S)-[2-[(3-aminooxalyl-2-ethylbenzo [b]thiophen-4-yl)oxy]acetylamino]-4-methylpentanoic cid methylester]
10.6	CCc1sc2cccc(OCC(=O)N[C@@H](CC(C)C)C(=O)O)c2c1C(=O)C(N)=O [Example 3, 2(S)-[2-[(3-aminooxalyl-2-ethylbenzo [b]thiophen-4-yl)oxy]acetylamino]-4-methylpentanoic acid]
